Experimental data: patent publication US20260317324A1, “BIFUNCTIONAL COMPOUNDS FOR DEGRADING BRAF VIA UBIQUITIN PROTEOSOME PATHWAY” (Nurix Therapeutics, Inc., priority 2023, published 2026)

How the values were obtained:
Assay type in all cases: cell-based
[1] = target: T1, BRAF G466V (Homo sapiens, UniProt P15056, G466V); test: BRAF HiBiT degradation assay, C-terminal HiBiT-tagged BRAF G466V overexpressed in HCT-116 BRAF−/− cells (clone 8), Nano-Glo HiBiT Lytic assay
T1 construct: Horizon Discovery (HCT-116 BRAF−/− cells); host or cells: HCT-116 BRAF−/− cells, clone 8, lentiviral transduction
T1 sequence (P15056 whole entry G466V): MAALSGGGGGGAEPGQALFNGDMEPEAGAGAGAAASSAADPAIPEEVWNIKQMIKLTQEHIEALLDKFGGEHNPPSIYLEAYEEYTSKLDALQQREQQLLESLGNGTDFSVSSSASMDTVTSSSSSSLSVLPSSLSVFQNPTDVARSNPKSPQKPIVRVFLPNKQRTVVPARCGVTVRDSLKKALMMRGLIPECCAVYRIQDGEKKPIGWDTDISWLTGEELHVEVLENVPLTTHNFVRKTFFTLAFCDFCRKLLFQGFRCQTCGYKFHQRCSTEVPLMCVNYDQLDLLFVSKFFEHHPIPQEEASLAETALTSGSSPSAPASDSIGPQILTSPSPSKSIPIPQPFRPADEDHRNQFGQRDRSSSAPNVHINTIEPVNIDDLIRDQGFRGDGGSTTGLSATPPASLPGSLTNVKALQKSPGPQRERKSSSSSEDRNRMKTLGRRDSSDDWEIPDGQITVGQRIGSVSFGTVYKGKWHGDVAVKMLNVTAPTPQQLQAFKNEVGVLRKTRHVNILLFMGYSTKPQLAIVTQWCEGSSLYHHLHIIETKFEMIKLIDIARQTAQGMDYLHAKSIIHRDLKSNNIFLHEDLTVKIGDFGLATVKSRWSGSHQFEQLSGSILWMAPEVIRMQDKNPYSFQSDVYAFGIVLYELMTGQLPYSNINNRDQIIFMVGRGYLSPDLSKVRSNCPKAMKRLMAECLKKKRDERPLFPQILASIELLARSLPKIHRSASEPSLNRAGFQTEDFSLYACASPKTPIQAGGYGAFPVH
Procedure, shortened: (§1)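 First, the stable HiBiT-tagged cells were plated and incubated for 24 h. Next, compound was added in duplicate as an 11-point series with a 1 μM top concentration. Lytic detection followed, with DMSO-treated parental cells used for background. Finally, DC50 and Obs. Dmax relative to DMSO were derived from the % protein remaining curves.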

[2] = target: T2, BRAF G469A (Homo sapiens, UniProt P15056, G469A); test: BRAF HiBiT degradation assay, C-terminal HiBiT-tagged BRAF G469A overexpressed in HCT-116 BRAF−/− cells (clone 34), Nano-Glo HiBiT Lytic assay
T2 construct: Horizon Discovery (HCT-116 BRAF−/− cells); host or cells: HCT-116 BRAF−/− cells, clone 34, lentiviral transduction
T2 sequence (P15056 whole entry G469A): as the sequence (P15056 whole entry G466V) above, with V466G, G469A counted along it
Procedure, shortened: as §1

[3] = target: T3, BRAF D594G (Homo sapiens, UniProt P15056, D594G); test: BRAF HiBiT degradation assay, C-terminal HiBiT-tagged BRAF D594G overexpressed in HCT-116 BRAF−/− cells (clone 63), Nano-Glo HiBiT Lytic assay
T3 construct: Horizon Discovery (HCT-116 BRAF−/− cells); host or cells: HCT-116 BRAF−/− cells, clone 63, lentiviral transduction
T3 sequence (P15056 whole entry D594G): as the sequence (P15056 whole entry G466V) above, with V466G, D594G counted along it
Procedure, shortened: as §1

[4] = target: T4, BRAF V600E (Homo sapiens, UniProt P15056, V600E); test: BRAF HiBiT degradation assay, C-terminal HiBiT-tagged BRAF V600E A375 cells (clone 1F10), Nano-Glo HiBiT Lytic assay; details: for Dmax: A-375
T4 construct: endogenous C-terminal HiBiT fusion tag on BRAF V600E allele; endogenous in cells; host or cells: A375 clone 1F10 (CRISPR-Cas9 knock-in of the HiBiT tag; parental A375 from ATCC)
T4 sequence (P15056 whole entry V600E, the tested form may be a part): as the sequence (P15056 whole entry G466V) above, with V466G, V600E counted along it
Procedure, shortened: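 Degradation is measured as loss of HiBiT signal from BRAF V600E tagged at its native locus in A375 cells. Doses span 1 μM to 0.01 nM in half-log steps, in duplicate. Percent remaining is calculated against DMSO controls after subtracting untagged A375 background, and curve fitting yields DC50 and observed Dmax.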

[5] = BRAF G466V, DC50 at 50%: fitted conc. at Y=50
[6] = HCT-116, BRAF G466V, percentage protein degraded at maximal compound effect relative to DMSO
[7] = Class 2, BRAF G469A, DC50 at 50%: fitted conc. at Y=50
[8] = HCT-116, Class 2, BRAF G469A, percentage protein degraded at maximal compound effect relative to DMSO
[9] = BRAF D594G, DC50 at 50%: fitted conc. at Y=50
[10] = HCT-116, BRAF D594G, percentage protein degraded at maximal compound effect relative to DMSO
[11] = A375 (BRAF V600E), DC50 at 50%: fitted conc. at Y=50
[12] = A375 (BRAF V600E), percentage protein degraded at maximal compound effect relative to DMSO
[13] = BRAF G466V (Class 3), HCT-116 BRAF−/− cells, DC50 at 50% degradation
[14] = BRAF G466V (Class 3), HCT-116 BRAF−/− cells, observed Dmax relative to DMSO control
[15] = BRAF G469A (Class 2), HCT-116 BRAF−/− cells, DC50 at 50% degradation
[16] = BRAF G469A (Class 2), HCT-116 BRAF−/− cells, observed Dmax relative to DMSO control
[17] = BRAF D594G (Class 3), HCT-116 BRAF−/− cells, DC50 at 50% degradation
[18] = BRAF D594G (Class 3), HCT-116 BRAF−/− cells, observed Dmax relative to DMSO control
[19] = A375 (BRAF V600E, Class 1), DC50 at 50% degradation
[20] = A375 (BRAF V600E, Class 1), observed Dmax, % protein degraded relative to DMSO control

Structure (SMILES) | DC50 [1, 5] [nM] | Dmax [1, 6] [%] | DC50 [2, 7] [nM] | Dmax [2, 8] [%] | DC50 [3, 9] [nM] | Dmax [3, 10] [%] | DC50 [4, 11] [nM] | Dmax [4, 12] [%] | DC50 [1, 13] [nM] | Dmax [1, 14] [%] | DC50 [2, 15] [nM] | Dmax [2, 16] [%] | DC50 [3, 17] [nM] | Dmax [3, 18] [%] | DC50 [4, 19] [nM] | Dmax [4, 20] [%]
CCCS(=O)(=O)Nc1cccc(-c2cn(C3CCN(C(=O)C4(C)CCN(C(=O)C5CCN(c6ccc(C7CCC(=O)NC7=O)cn6)CC5)CC4)CC3)nc2-c2ccncc2)c1F (racemic) [Compound 8, Rac-N-[3-(1-{1-[1-(1-{5-[(3R)-2,6-dioxopiperidin-3-yl]pyridin-2-yl}piperidine-4-carbonyl)-4-methylpiperidine-4-carbonyl]piperidin-4-yl}-3-(pyridin-4-yl)-1H-pyrazol-4-yl)-2-fluorophenyl]propane-1-sulfonamide] | > 500 | 30 to 70 | > 500 | 30 to 70 | > 500 | 30 to 70 | 10 to 50 | > 70 |  |  |  |  |  |  |  | 
O=C1CCC(c2ccc(N3CCC(CN4CCN(c5ccc(-n6cc(-c7cc(Cl)cc(NS(=O)(=O)N8CCCC8)c7F)c(-c7ccncc7)n6)cc5)CC4)CC3)c(F)c2F)C(=O)N1 (racemic) [Compound 385, Rac-N-{5-chloro-3-[1-(4-{4-[(1-{4-[(3R)-2,6-dioxopiperidin-3-yl]-2,3-difluorophenyl}piperidin-4-yl)methyl]piperazin-1-yl}phenyl)-3-(pyridin-4-yl)-1H-pyrazol-4-yl]-2-fluorophenyl}pyrrolidine-1-sulfonamide] |  |  |  |  |  |  |  |  | < 10 | > 70 | 50 to 500 | 30 to 70 | < 10 | 30 to 70 | 10 to 50 | > 70
CCCS(=O)(=O)Nc1cccc(-c2nc(C(C)(C)C)sc2-c2ccnc(Nc3ccc(C4CCN(C(=O)C[C@H]5CCN(c6ccc(C7CCC(=O)NC7=O)cc6)C5)CC4)cc3)n2)c1F (mixture of isomers) [Compound 165, N-{3-[2-tert-butyl-5-(2-{[4-(1-{2-[(3R)-1-{4-[(3RS)-2,6-dioxopiperidin-3-yl]phenyl}pyrrolidin-3-yl]acetyl}piperidin-4-yl)phenyl]amino}pyrimidin-4-yl)-1,3-thiazol-4-yl]-2-fluorophenyl}propane-1-sulfonamide] | > 500 | < 30 | > 500 | < 30 | > 500 | < 30 | 10 to 50 | 30 to 70 |  |  |  |  |  |  |  | 
O=C1CC[C@H](c2ccc(N3CCC(CN4CCN(c5ccc(-n6cc(-c7cc(Cl)cc(NS(=O)(=O)C8CCCC8)c7F)c(-c7ccncc7)n6)cc5)CC4)CC3)nc2)C(=O)N1 [Compound 372, N-{5-chloro-3-[1-(4-{4-[(1-{5-[(3R)-2,6-dioxopiperidin-3-yl]pyridin-2-yl}piperidin-4-yl)methyl]piperazin-1-yl}phenyl)-3-(pyridin-4-yl)-1H-pyrazol-4-yl]-2-fluorophenyl}cyclopentanesulfonamide] |  |  |  |  |  |  |  |  | 10 to 50 | > 70 | 10 to 50 | > 70 | < 10 | > 70 | < 10 | > 70
CCCS(=O)(=O)Nc1cccc(-c2nc(C3CCN(C(=O)C4CCN(CC5CCN(c6cccc7c6n(C)c(=O)n7C6CCC(=O)NC6=O)CC5)CC4)CC3)sc2-c2ccnc(N)n2)c1F (racemic) [Compound 195, Rac-N-{3-[5-(2-aminopyrimidin-4-yl)-2-(1-{1-[(1-{1-[(3R)-2,6-dioxopiperidin-3-yl]-3-methyl-2-oxo-2,3-dihydro-1H-1,3-benzodiazol-4-yl}piperidin-4-yl)methyl]piperidine-4-carbonyl}piperidin-4-yl)-1,3-thiazol-4-yl]-2-fluorophenyl}propane-1-sulfonamide] | < 10 | 30 to 70 | < 10 | 30 to 70 | < 10 | 30 to 70 | < 10 | > 70 |  |  |  |  |  |  |  | 
O=C1CCN(c2ccc(N3CCC(CN4CCN(c5ccc(-n6cc(-c7cc(F)cc(NS(=O)(=O)N8CCCC8)c7F)c(-c7ccncc7)n6)cc5)CC4)CC3)cc2)C(=O)N1 [Compound 300, N-[3-(1-{4-[4-({1-[4-(2,4-dioxo-1,3-diazinan-1-yl)phenyl]piperidin-4-yl}methyl)piperazin-1-yl]phenyl}-3-(pyridin-4-yl)-1H-pyrazol-4-yl)-2,5-difluorophenyl]pyrrolidine-1-sulfonamide] |  |  |  |  |  |  |  |  | < 10 | > 70 | 50 to 500 | 30 to 70 | < 10 | 30 to 70 | 10 to 50 | > 70
CCCS(=O)(=O)Nc1cccc(-c2nc(C(C)(C)C)sc2-c2ccnc(Nc3ccc(N4CCN(CC5CCN(c6ccc([C@H]7CCC(=O)NC7=O)cc6)CC5)CC4)c(F)c3)n2)c1F [Compound 87, N-[3-(2-tert-butyl-5-{2-[(4-{4-[(1-{4-[(3R)-2,6-dioxopiperidin-3-yl]phenyl}piperidin-4-yl)methyl]piperazin-1-yl}-3-fluorophenyl)amino]pyrimidin-4-yl}-1,3-thiazol-4-yl)-2-fluorophenyl]propane-1-sulfonamide] | 10 to 50 | 30 to 70 | > 500 | 30 to 70 | > 500 | 30 to 70 | 10 to 50 | > 70 |  |  |  |  |  |  |  | 
CCCS(=O)(=O)Nc1cccc(-c2nc(C3CCN(C4CN(C(=O)CC5CCN(c6ccc(C7CCC(=O)NC7=O)cc6)CC5)C4)CC3)sc2-c2ccnc(N)n2)c1F (racemic) [Compound 215, Rac-N-{3-[5-(2-aminopyrimidin-4-yl)-2-(1-{1-[2-(1-{4-[(3R)-2,6-dioxopiperidin-3-yl]phenyl}piperidin-4-yl)acetyl]azetidin-3-yl}piperidin-4-yl)-1,3-thiazol-4-yl]-2-fluorophenyl}propane-1-sulfonamide] | > 500 | < 30 | > 500 | < 30 | > 500 | < 30 | 10 to 50 | > 70 |  |  |  |  |  |  |  | 
CCCS(=O)(=O)Nc1cccc(-c2nc(C(C)(C)C)sc2-c2ccnc(Nc3ccc(N4CCN(CC5CCN(c6ccc(C7CCC(=O)NC7=O)cn6)CC5)CC4)c(F)c3)n2)c1F (racemic) [Compound 45, Rac-N-[3-(2-tert-butyl-5-{2-[(4-{4-[(1-{5-[(3R)-2,6-dioxopiperidin-3-yl]pyridin-2-yl}piperidin-4-yl)methyl]piperazin-1-yl}-3-fluorophenyl)amino]pyrimidin-4-yl}-1,3-thiazol-4-yl)-2-fluorophenyl]propane-1-sulfonamide] | < 10 | > 70 | > 500 | 30 to 70 | 10 to 50 | 30 to 70 | 10 to 50 | > 70 |  |  |  |  |  |  |  | 
CCN(C)S(=O)(=O)Nc1cc(Cl)cc(-c2cn(-c3ccc(N4CCN(CC5CCN(c6ccc([C@H]7CCC(=O)NC7=O)cn6)CC5)CC4)cn3)nc2-c2ccncc2)c1F [Compound 314, (3R)-3-(6-{4-[(4-{6-[4-(5-chloro-3-{[ethyl(methyl)sulfamoyl]amino}-2-fluorophenyl)-3-(pyridin-4-yl)-1H-pyrazol-1-yl]pyridin-3-yl}piperazin-1-yl)methyl]piperidin-1-yl}pyridin-3-yl)piperidine-2,6-dione] |  |  |  |  |  |  |  |  | 10 to 50 | > 70 | 10 to 50 | 30 to 70 | < 10 | > 70 | < 10 | > 70
